# Laboratory results reported in paper doi:10.1101/2024.07.10.602890, “H105A peptide eye drops promote photoreceptor survival in murine and human models of retinal degeneration” (bioRxiv, 2024).
# Ends that are not written are not given here.
# What was measured:
# [1] = tested on: rd10 and rd10/Serpinf1−/− mice; test: In vivo photoreceptor cell death (PS externalization) by PSVue-550 fluorescence fundoscopy; parameters: species or system mouse
# Description: Fig. 2: Effect of PEDF peptide eye drops on protection against photoreceptor cell death in rd10 and rd10/Serpinf1^−/− mice (A) Illustration of the experimental timeline of peptide application. Eye drops containing 5 μl of 17-mer, H105A, or R99A peptides in HBSS were administered daily to eyes of rd10 and rd10/Serpinf1^−/− mice from P15 to P20. Vehicle (HBSS) was applied in contralateral eyes. At P20, PSVue® was applied via eye drops, and fluorescence fundoscopy was conducted at P21 to assess photoreceptor cell death. RE and LE refer to the right and left eyes, respectively. (B) Fluorescence fundoscopy micrographs. Representative fluorescence fundoscopy images of retinas from mice treated as in Panel A with eyedrops of 1 mg/ml of each peptide. Quantification of fluorescence intensity was performed using ImageJ, with average intensity values corrected for background fluorescence from eyes that had not received PSVue or peptides. […] Statistical significance was determined by unpaired t-test (****p < 0.0001). […] Representative fluorescence fundoscopy micrographs showing retinas treated with varying concentrations of 17-mer and H105A peptides (0.0 mg/ml to 1.0 mg/ml) in rd10 and rd10/SerpinfT^−/− mice. Fluorescence intensity was quantified and analyzed using Sigmoidal interpolation in GraphPad. […]
# [2] = tested on: rd10 and rd10/Serpinf1−/− mice; test: Retinal histology (H&E), OS length and ONL thickness spider plots after peptide eye drops; type: in vivo, mouse; conditions: daily eye drops 1 mg/ml; rd10 and rd10/Serpinf1−/− mice; P21
# Description: Fig. 4: Effect of eyedrops of 17-mer and H105A peptides on photoreceptor morphology of rd10 and rd10/Serpinf1−/− mice (A and B) Histological Evaluation. Representative microphotographs of retina sections from rd10 (A) and rd10/Serpinf1−/− (B) mice treated with 17-mer, H105A, or R99A peptides at 1 mg/ml, or with vehicle (HBSS), compared to wild type C57Bl/6J mice. Sections were stained with hematoxylin and eosin. Spider Plot illustrate the thickness of the outer nuclear layer (ONL) in rd10 (C) and rd10/Serpinf1−/− (D) mice. Five retinas per group were analyzed and each data point represents the average ± SEM per location relative to the optic nerve (ON), analyzed using One-way ANOVA. Statistics for comparisons between H105A and vehicle is indicated by #p < 0.05, #p < 0.05, ##p < 0.01, ###p < 0.001). Statistics for comparisons between H105A and 17-mer is indicated by *p < 0.05. Scale bar = 50 μm.
# Both eyes were oriented before enucleation to allow sectioning along the dorsal/ventral axis. Enucleated eyes from rd10 and rd10 × Serpinf1^−/− mice were incised in the cornea and fixed in 2.5% glutaraldehyde for 20 min and then in 10% neutral buffered formalin at 4°C for at least 48 h, followed by paraffin embedding, sectioning, and staining with either H&E or immunofluorescence procedures, as previously described ([28]). For fluorescence microscopy, antibodies, and 0.1 μg/ml DAPI were used to immunostain and nuclei counterstain the sections, respectively. Antibodies used in the study are in Table S3. Images were acquired using a ZEIS 700 confocal microscope. Fluorescence intensity was quantified using ImageJ as previously described ([14], [26]).
# To generate spider plots, the ONL thickness was measured from images acquired with light microscopy of the retina sections stained with H&E or images of retina sections stained with DAPI with a dorsal-ventral orientation. The ONL thickness in the entire retina sections was measured at 5 different positions from both sides of the optic nerve (ON) using ImageJ, as described before ([28]). Alternatively, for DAPI stained images, a customed macro implemented in ImageJ was used to select only the ONL.
# (§1) Figure S2. Effects of extending the timeline or administering eye drops of 17-mer[H105A] peptide every other day in rd10 mic e.
# (§2) Eye drops of H105A peptide solution were administered to r d1 0 mice either daily (Fig. S2A) or every other day (Fi g. S 2D). A total of 5 µl of a solution containing H105A peptide at 1 mg/ml in HBSS were applied as eye drops. The vehicle HBSS was added as eye drops in the contralateral eyes. […]
# ONL thickness in r d10 mice compared to vehicle was also observed (Fi g. S 2E), with an improvement in a- […]
# efficacy of peptide H105A eye drops either daily or every other day in an extended timeline to stabilize photoreceptor morphology and light response function loss in r d10 mice, however, these were less efficacious than daily H105A peptide eye drops.
# (A) Scheme showing a timeline of peptide administration via daily eye drops of H105A peptide to r d10 mice between P15 and P2 4. […]
# (B) Representative microphotographs of retinal cross sections of r d1 0 treated as in Fig. S2A and stained with hematoxylin and eosin are shown. […]
# (D) Scheme showing a timeline of peptide administration via eye drops of H105A peptide to rd10 mice starting at P15 every other day until P23. Assays were at P25.
# (E) Representative microphotographs of retinal cross sections of r d1 0 treated as in Fig. S2D and stained […]
# average ± SD per location relative to the ON per genotype by unpaired t-test. *p < 0.05, […]
# (F) ERG of r d1 0 mice at P25 and treated as in Fig. S2D were performed in response to a STR. […]
# [3] = tested on: rd10 and rd10/Serpinf1−/− mice; test: Electroretinography (ERG) a-wave and b-wave after peptide eye drops; type: in vivo, mouse; conditions: rd10 mice; daily eye drops of AlexaFl488-labelled peptide P15-P20, ERG at P21; n = 3 per condition
# Text: Fig. 5: Effect of daily eyedrops of PEDF peptides on ERG a-wave and b-wave retinal function (A and B) Representative ERG waveforms for rd10 (A) and rd10/Serpinf1^−/− (B) mice at P21 in response to a light flash (1 cd.s/m^2). Amplitude (y-axis) is plotted against time in milliseconds (ms, x-axis). Treatments are indicated to the right of each plot and are color coded, with control wild type C57Bl/6J mice without peptide treatment shown in blue. A-wave and b-wave are indicated by arrows. (C and D) Photoreceptor a-wave amplitudes. Averages of photoreceptor a-wave amplitudes for rd10 (C) and rd10/Serpinf1^−/− (D) mice as a function of light intensity (cd/s.m^2, x-axis). Responses of animals treated with 17-mer are shown in green, H105A in black, and vehicle (HBSS) in red. Wildtype responses are shown in blue. (E and F) Bipolar cell b-wave amplitudes. Averages of bipolar cell b-wave amplitudes for rd10 (E) and rd10/Serpinf1^−/− (F) mice as a function of light intensity (cd/s.m^2, x-axis), with treatments indicated as in panels (C) and (D). The number of mice evaluated for the data shown in Panels C-F were n = 8 for each rd10, rd10/Serpinf1^−/− and wild type. Each data point represents the average ± SD of each genotype, analyzed by unpaired t-test. Statistical significance between H105A and vehicle is indicated by ##p < 0.01, ###p < 0.001, ####p < 0.0001, and between H105A and 17-mer by **p < 0.01, ***p < 0.001, ****p < 0.0001.
# Electroretinogram (ERG) for rd10 and rd10/Serpinf1^−/− mice were recorded in both eyes of each animal using an Espion E2 system with ColorDome (Diagnosys LLC) with a heated surface and mice were dark-adapted overnight as previously described ([29]). Mice were placed on the heated surface and electrodes were placed in the mouth and a subdermal platinum needle electrode was placed in the back of the mouse to serve as ground. Responses were elicited with increasing light impulses with intensity from 0.0001 to 10 cd-seconds per meter squared (cd.s/m^2). Amplitudes for a-wave were measured from stimulus to the trough of the a-wave and b-wave amplitudes were measured from a-wave to b-wave trough or peak. The values from the a and b waves for both eyes were exported to Microsoft Excel to obtained amplitude values for each mouse.
# as §1
# as §2, with “eyes. When eye” for “eyes.”
# intensity light at P25 (Fig. S2C). When eye drops of H105A were added every other day, a rescue in the ONL thickness in r d10 mice compared to vehicle was also observed (Fi g. S 2E), with an improvement in a- […]
# efficacy of peptide H105A eye drops either daily or every other day in an extended timeline to stabilize photoreceptor morphology and light response function loss in r d10 mice, however, these were less efficacious than daily H105A peptide eye drops. […]
# (C) ERG of r d1 0 mice at P25 and treated as in Fi g. […] For ERG data shown, the number of mice evaluated were n =5 for rd10 and each data point corresponds to the average ± SD of each genotype by unpaired t-test. *p < 0.05, **p < 0.01, * ** p < 0 .001 , ****p < 0.0001. […]
substance,measurement,setting,value
QATESIIHRALYYDLIS [R99A],PS externalization (PSVue-550 fundi fluorescence) vs vehicle (HBSS) eye drops,"[1]; daily eye drops 5 μl of 1 mg/ml, P15 to P20, fundoscopy at P21, 5 eyes per condition",no significant efficacy
same,outer nuclear layer (ONL) thickness vs vehicle-treated or untreated eyes,[2],had no effect
same,photoreceptor outer segment (OS) length vs vehicle-treated or untreated eyes,[2],had no effect
SLGAEQRTESIIHRALYYDLISSPDIHGT [29-mer],photoreceptor cell death (PSVue 550 fluorescence fundoscopy) relative to vehicle,"[1]; daily eye drops 5 μl of 1 mg/ml in HBSS from P15, P21, n = 3 retinas per genotype",no rescue in photoreceptor cell death
"AlexaFl-QRTESIIARALYYDLIS-COOH [AlexaFl-488-H105A, H105A peptide conjugated to Alexa Fluor 488 dye]",neuroprotective activity of labelled peptides as assessed by ERG,[3],exhibited neuroprotective activity
"AlexaFl-QRTESIIHRALYYDLIS-COOH [AlexaFl-488-17-mer, 17-mer conjugated to Alexa Fluor 488 dye]",neuroprotective activity of labelled peptides as assessed by ERG,[3],exhibited neuroprotective activity
